According to publication PMC12663132, “Assessment of cytotoxicity of some synthetic compounds against breast carcinoma spheroids with subsequent analysis of pro-apoptotic and gene expression” (Scientific Reports, 2025):
Like-named read-outs stand apart in the source and are kept apart here.

Experiments:
[1] = tested on: MCF7; test: Cytotoxicity on MCF7 monolayers (MTT assay); details: Homo sapiens, MCF7, 72 h, read-out: Mean of % cytotoxicity ± SD
Experimental: (§1) Eighty pre-plated synthetic chemical compounds were screened on two human cell lines: MCF7 (ATCC® HTB-22™), a Caucasian breast adenocarcinoma model, and hTERT-RPE-1 (ATCC® CRL-4000™), a normal retinal epithelial cell line immortalized by hTERT telomerase. […] The cells were cultured in DMEM-F12 medium supplemented with L-glutamine and 10% fetal bovine serum, all were purchase from Biowest (Biotechnology company in Nuaillé, France), and maintained in a controlled incubator environment set at 37 °C with 5% CO2 and 95% humidity.
MCF7 cells were seeded in flat-bottom 96-well plates with a concentration of 20,000 cells/well, and were left overnight. The compounds were tested at a final concentration of 50 µM. Doxorubicin was used as a positive control and 0.5% DMSO as a negative control. The treatment duration was 72 h. The cytotoxicity was then assessed using the MTT assay, as described by Mosmann[43].

[2] = tested on: MCF7 cell line; test: Pro-apoptotic activity, M30 Cytodeath ELISA (CK18-Asp396); format: cell-based, human; details: MCF7 monolayers, 50 µM, 24 h
Experimental: The pro-apoptotic activity is measured as fold increase of the spontaneous apoptosis occurred in the DMSO treated negative control ± standard deviation.
The cutoff was determined as fourfold increase in the apoptosis signal of the negative control.
The accumulation of CK18-Asp396 in treated MCF7 cell cultures was quantified using the M-30 Cytodeath® ELISA kit according to the manufacturer’s instructions. Briefly, the MCF7 cell line monolayers were exposed to the chemical compounds at a concentration of 50 µM. Following 24 h of incubation, the culture medium was supplemented with 0.1% NP40. Subsequently, aliquots of 25 µL from each well, containing CK18 released into the medium from attached and floating cells and cell fragments, were subjected to the ELISA assay. Cleaved CK18 levels were determined by measuring the absorbance at 450 nm[46].

[3] = tested on: MCF7 3D spheroids; test: Cytotoxicity on MCF7 3D multicellular spheroids (acid phosphatase method); details: for cytotoxicity at 50 µM: MCF7, 120 h, read-out: Mean of % cytotoxicity ± S.D
Experimental: as §1
3-D spheroid models were generated from MCF7 cancer and hTERT-RPE1 normal cells were seeded at 10,000 and 50,000 cells/well, respectively, in poly-HEMA coated round bottom plates according to the protocol previously mentioned[44]. The cells were incubated for 5 days to generate the spheroids with diameter of 500 ± 20 µm. The spheroids were imaged using Olympus S100, U-CMAD3 camera connected to Olympus inverted microscope and the diameter of the spheroids was measured using Cellscen-Entry software. Test compounds were added in triplicate to a final concentration of 50 µM and were incubated for 120 h. […] At the end of incubation, cytotoxicity was determined using the acid phosphatase method[45]. After washing twice with 250 μL PBS buffer, 100 μL of 0.1 M sodium citrate, 0.1% Triton X-100, p-nitrophenylphosphate (2 mg/ml) (Pierce Biotechnology Inc., Rockford, IL) was added to each well and incubated for 1.5 h at 37 °C. After incubation, 10 μL of 1N NaOH stop solution was added to each well, and absorbance was read at 405 nm. Cytotoxicity was calculated according to the following equation:

[4] = tested on: hTERT-RPE1 3D spheroids; test: Cytotoxicity on normal RPE1 3D spheroids (acid phosphatase method); format: cell-based, human; details: 120 h
Experimental: These cell lines were generously provided by Prof. Stig Linder, Karolinska Institute (Sweden).
Cytotoxicity was calculated according to the following equation: […]

[5] = tested on: MCF7 breast cancer cells; test: Gene expression profiling by real-time PCR (p53, Bax, Bcl-2, IL-6, TNF-alpha, MMP1); format: cell-based, human; details: MCF7, IC50 concentration, 24 h, qRT-PCR
Experimental: Total RNA was extracted from both control and treated cells using the RNeasy kit. Up to one million cells were subjected to disruption in Buffer RLT, homogenization, and ethanol treatment to promote selective binding of RNA to the RNeasy membrane. High-purity RNA was subsequently eluted using RNase-free water. All binding, washing, and elution steps were performed using centrifugation in a micro-centrifuge. The sample was then applied to an RNeasy Mini spin column, enabling total RNA retention on the membrane while contaminants were efficiently eliminated. The RNA was then used as a template for real-time PCR to quantify the mRNA levels of genes. Two sets of primers were used—one for the IL-6, TNF-alpha, MMP1, p53, Bcl-2, and Bax genes and another for the endogenous control gene, β-actin (Table 6). The real-time PCR reaction was carried out with the following cycling conditions: 50 °C for 45 min (cDNA synthesis), followed by 40 cycles of 95 °C for 10 s and 60 °C for 60 s. A negative control was included to ensure primer specificity and rule out contamination. Finally, the statistical analysis of the expression of the genes was performed using one-way ANOVA followed by the Tukey–Kramer post-test.

[6] = Homo sapiens, MCF7, read-out: IC50 (µM) for MCF7 ± SD, MCF7 3D spheroids
[7] = read-out: IC50 (µM) for MCF7 ± SD, MCF7 3D spheroids

| Compound | cytotoxicity at 50 µM [1] | Fold increase (apoptosis signal vs DMSO negative control) [2] | cytotoxicity at 50 µM ([3]; Homo sapiens) | IC50 [3, 6] | Cytotoxic effect% ± SD RPE1(50µM) [4] | Expression of apoptosis-related genes (Bax, P53, Bcl-2) [5] | IC50 [3, 7] | Expression of inflammatory markers (IL-6, TNFα, MMP1) [5] |
| --- | --- | --- | --- | --- | --- | --- | --- | --- |
| Cc1cccc(C)c1NC(=O)COC(=S)c1sc2ccccc2c1Cl [A07, 2-(2,6-dimethylanilino)-2-oxoethyl 3-chlorobenzo[b] thiophene-2-carbothioate] | 36.5 ± 1.2% | 3.64 fold | 75.1 ± 0.53% | 31.7 ± 1.2 µM | – | – | – | – |
| Nc1ccccc1SCC=CCSc1ccccc1N [C02, 2-({4-[(2-aminophenyl)thio]but-2-enyl}thio)aniline] | 100 ± 0.003% | – | 87.3 ± 4.5% | < 26 µM | 18.3 ± 0.4% | moderate pro-apoptotic effect compared to the positive control | 25.3 ± 1.2 µM | – |
| O=C(NCCc1c[nH]c2ccccc12)Nc1ccc(Cl)cc1 [D08, N-(4-chlorophenyl)-N'-[2-(1H-indol-3-yl)ethyl]urea] | 97.7 ± 0.47% | 2.14 fold | 74 ± 2.9% | 36.9 ± 0.6 µM | 39.4 ± 1% | – | – | – |
| CCOC(=O)c1c(NS(=O)(=O)c2cccc3nsnc23)sc(C)c1C [F03, ethyl 2-[(2,1,3-benzothiadiazol-4-ylsulfonyl)amino]-4,5-dimethylthiophene-3-carboxylate] | 70 ± 4% | – | 91.5 ± 0.5% | < 26 µM | 34.4 ± 2.3% | moderate pro-apoptotic effect compared to the positive control | 18.8 ± 1.3 µM | – |
| COc1ccc(OCCC(=O)NNC(=S)Nc2cc(Cl)ccc2Cl)cc1 [F06, N1-(2,5-dichlorophenyl)-2-[3-(4-methoxyphenoxy)propanoyl]hydrazine-1-carbothioamide] | 80.1 ± 1.7% | – | 88 ± 2.5% | < 26 µM | 18.4 ± 0.5% | greater ability to downregulate Bcl-2 while upregulating both P53 and Bax expression compared to the other compounds | 24.8 ± 0.6 µM | – |
| COC(=O)c1cc(C=C(C#N)C#N)c(OC)cc1OC [H09, methyl 5-(2,2-dicyanovinyl)-2,4-dimethoxybenzoate] | 86.2 ± 1.7% | 2.56 fold | 80.8 ± 0.77% | 41.2 ± 0.83 µM | 41.2 ± 1.6% | – | – | – |
| N.N.[Cl][Pt][Cl] [cisplatin, reference compound] | – | – | – | – | – | – | 31.7 ± 1.5 µM | milder pro-inflammatory effects compared to the tested three compounds |
